This note sets out measurements from US9388162B2, “Substituted morphinans and the use thereof” (Purdue Pharma L.P., priority 2012, dated 2016).

SMILES strings stand for the structures.

For test [1], the target named is recombinant human kappa opioid receptor (κ) (Homo sapiens (Human), UniProt P41145). As to the kind of experiment: κ-opioid receptor radioligand dose displacement binding assay ([3H]-U69,593). The conditions noted are these: mean ± SEM, read-out: Binding Affinity Opioid Receptor Ki (nM) [mean ± SEM] κ. On the procedure:
(§1) Membranes from HEK-293 cells, CHO or U-2 OS cells expressing the recombinant human kappa opioid receptor (κ) were prepared by lysing cells in ice cold hypotonic buffer (2.5 mM MgCl2, 50 mM HEPES, pH 7.4) (10 mL/10 cm dish) followed by homogenization with a tissue grinder/Teflon pestle. Membranes were collected by centrifugation at 30,000×g for 15 min at 4° C. and pellets were resuspended in hypotonic buffer to a final concentration of 1-3 mg/mL. Protein concentrations were determined using the BioRad protein assay reagent with bovine serum albumen as standard. Aliquots of κ receptor membranes were stored at −80° C.
Radioligand dose displacement assays used 0.4 nM [^3H]-U69,593 (GE Healthcare, Piscataway, N.J.; 40 Ci/mmole) with 15 μg membrane protein (recombinant κ opioid receptor expressed in HEK 293 cells; in-house prep) in a final volume of 200 μl binding buffer (5% DMSO, 50 mM Trizma base, pH 7.4). Non-specific binding was determined in the presence of 10 μM unlabeled naloxone or U69,593. All reactions were performed in 96-well polypropylene plates for 1 hour at a temperature of about 25° C. Binding reactions were terminated by rapid filtration onto 96-well Unifilter GF/C filter plates (Perkin Elmer, Shelton, Conn.) presoaked in 0.5% polyethylenimine (Sigma). Harvesting was performed using a 96-well tissue harvester (Perkin Elmer, Shelton, Conn.) followed by five filtration washes with 200 μl ice-cold binding buffer. Filter plates were subsequently dried at 50° C. for 1-2 hours. Fifty μl/well scintillation cocktail (Perkin Elmer, Shelton, Conn.) was added and plates were counted in a Packard Top-Count for 1 min/well.
(§2) The following tables provide results on the efficacy of binding and activity response of exemplified Compounds of the Invention at the μ- and κ-opioid receptors. In TABLE 3, binding affinity of certain Compounds of the Invention to the μ- and κ-opioid receptors was determined as described above. In TABLE 4, activity response of certain Compounds of the Invention to the μ- and κ-opioid receptors was determined as described above for functional assays using HEK-293 cells. In TABLE 5, activity response of certain Compounds of the Invention to the μ- and κ-opioid receptors was determined as described above using U-2 OS cells.

Test [2] addresses T1, μ-opioid receptors (Homo sapiens (Human), UniProt P35372). As to the kind of experiment: μ-opioid receptor [35S]GTPγS functional assay, HEK-293 cells. It counts as biochemical. The conditions noted are these: μ GTP; for EC50: read-out: Activity Response μ EC50 (nM) [mean ± SEM]; for Emax: relative to DAMGO, read-out: Activity Response μ Emax (%). On the procedure:
[^35S]GTPγS functional assays were conducted using freshly thawed μ-receptor membranes prepared from a cell line expressing recombinant μ opioid receptor in a HEK-293, CHO or U-2 OS cell background or purchased from a commercial source (Perkin Elmer, Shelton, Conn.; or DiscovRx, Fremont, Calif.). Assay reactions were prepared by sequentially adding the following reagents to binding buffer (100 mM NaCl, 10 mM MgCl2, 20 mM HEPES, pH 7.4) on ice (final concentrations indicated): membrane protein (0.026 mg/mL), saponin ([…]), GDP ([…]) and [^35S]GTPγS (0.20 nM; Perkin Elmer, Shelton, Conn.). The prepared membrane solution (190 μl/well) was transferred to 96-shallow well polypropylene plates containing 10 μl of 20× concentrated stock solutions of the agonist [D-Ala^2, N-methyl-Phe^4 Gly-ol^5]-enkephalin (DAMGO) prepared in dimethyl sulfoxide (DMSO). Plates were incubated for 30 min at about 25° C. with shaking. Reactions were terminated by rapid filtration onto 96-well Unifilter GF/B filter plates (Perkin Elmer, Shelton, Conn.) using a 96-well tissue harvester (Perkin Elmer, Shelton, Conn.) followed by three filtration washes with 200 μl of ice-cold wash buffer (10 mM NaH2PO4, 10 mM Na2HPO4, pH 7.4). Filter plates were subsequently dried at 50° C. for 2-3 hours. BetaScint scintillation cocktail (Perkin Elmer, Shelton, Conn.) was added (50 μl/well) and plates were counted using a Packard Top-Count for 1 min/well. Data were analyzed using the sigmoidal dose-response curve fitting functions in GraphPad PRISM v. 3.0, or an in-house function for non-linear, sigmoidal dose-response curve-fitting.
μ GTP EC50 is the concentration of a compound providing 50% of the maximal response for the compound at a μ-opioid receptor.
μ GTP Emax (%) is the maximal effect elicited by a compound relative to the effect elicited by DAMGO, a standard μ agonist. Generally, the μ GTP Emax (%) value measures the efficacy of a compound to treat or prevent pain or other Conditions.
as §2

The target of test [3] is T2, κ opioid receptor (Homo sapiens (Human), UniProt P41145). Briefly: κ-opioid receptor [35S]GTPγS functional assay, HEK-293 cells. It counts as biochemical. The conditions noted are these: κ GTP; for EC50: read-out: Activity Response κ EC50 (nM) [mean ± SEM]; for Emax: relative to U69,593, read-out: Activity Response κ Emax (%). On the procedure: as §1
Functional [^35S]GTPγS binding assays were conducted as follows. κ opioid receptor membrane solution was prepared by sequentially adding final concentrations of 0.026 μg/μl κ membrane protein (in-house), 10 μg/mL saponin, 3 μM GDP and 0.20 nM [^35S]GTPγS to binding buffer (100 mM NaCl, 10 mM MgCl2, 20 mM HEPES, pH 7.4) on ice. The prepared membrane solution (190 μl/well) was transferred to 96-shallow well polypropylene plates containing 10 μl of 20× concentrated stock solutions of agonist prepared in DMSO. Plates were incubated for 30 min at a temperature of about 25° C. with shaking. Reactions were terminated by rapid filtration onto 96-well Unifilter GF/B filter plates (Perkin Elmer, Shelton, Conn.) using a 96-well tissue harvester (Packard) and followed by three filtration washes with 200 μl ice-cold binding buffer (10 mM NaH2PO4, 10 mM Na2HPO4, pH 7.4). Filter plates were subsequently dried at 50° C. for 2-3 hours. Fifty μl/well scintillation cocktail (Perkin Elmer, Shelton, Conn.) was added and plates were counted in a Packard Top-Count for 1 min/well.
κ GTP EC50 is the concentration of a compound providing 50% of the maximal response for the compound at a κ receptor.
κ GTP Emax (%) is the maximal effect elicited by a compound relative to the effect elicited by U69,593.
In TABLE 3, binding affinity of certain Compounds of the Invention to the μ- and κ-opioid receptors was determined as described above. In TABLE 4, activity response of certain Compounds of the Invention to the μ- and κ-opioid receptors was determined as described above for functional assays using HEK-293 cells. In TABLE 5, activity response of certain Compounds of the Invention to the μ- and κ-opioid receptors was determined as described above using U-2 OS cells.

Test [4] deals with T1, μ-opioid receptors. Briefly: μ-opioid receptor radioligand dose-displacement binding assay ([3H]-diprenorphine). The conditions noted are these: mean ± SEM, read-out: Binding Affinity Opioid Receptor Ki (nM) [mean ± SEM] μ. On the procedure:
Radioligand dose-displacement binding assays for μ-opioid receptors used 0.3 nM [^3H]-diprenorphine (Perkin Elmer, Shelton, Conn.), with […] membrane protein/well in a final volume of 500 μl binding buffer (10 mM MgCl2, 1 mM EDTA, 5% DMSO, 50 mM HEPES, pH 7.4). Reactions were carried out in the absence or presence of increasing concentrations of unlabeled naloxone. All reactions were conducted in 96-deep well polypropylene plates for 2 hours at room temperature. Binding reactions were terminated by rapid filtration onto 96-well Unifilter GF/C filter plates (Perkin Elmer, Shelton, Conn.), presoaked in 0.5% polyethylenimine using a 96-well tissue harvester (Perkin Elmer, Shelton, Conn.) followed by performing three filtration washes with 500 μl of ice-cold binding buffer. Filter plates were subsequently dried at 50° C. for 2-3 hours. BetaScint scintillation cocktail (Perkin Elmer, Shelton, Conn.) was added (50 μl/well), and plates were counted using a Packard Top-Count for 1 min/well. The data were analyzed using the one-site competition curve fitting functions in GraphPad PRISM™ v. 3.0 or higher (San Diego, Calif.), or an in-house function for one-site competition curve-fitting.
as §2

Test [5] addresses T1, μ-opioid receptors. As to the kind of experiment: μ-opioid receptor [35S]GTPγS functional assay, U-2 OS cells. The class given is biochemical. The conditions noted are these: μ GTP; for EC50: read-out: Activity Response μ EC50 (nM) [mean ± SEM]; for Emax: relative to DAMGO, read-out: Activity Response μ Emax (%).
In test [6] the target is T2, κ opioid receptor. Briefly: κ-opioid receptor [35S]GTPγS functional assay, U-2 OS cells. It counts as biochemical. As to conditions: κ GTP; for EC50: read-out: Activity Response κ EC50 (nM) [mean ± SEM]; for Emax: relative to U69,593, read-out: Activity Response κ Emax (%).

For `O=C(O)C[C@H]1C[C@@]2(O)[C@H]3Cc4ccc(O)cc4[C@@]2(CCN3CC2CC2)CC1=O` [Compound 9, 2-((4bR,7R,8aS,9R)-11-(cyclopropylmethyl)-3,8a-dihydroxy-6-oxo-6,7,8,8a,9,10-hexahydro-5H-9,4b-(epiminoethano)phenanthren-7-yl)acetic acid], the Ki turned out to be 0.97 ± 0.19 nM in test [1] and 6.18 ± 0.76 nM in test [4]. Besides, the EC50 in test [2] is greater than 200000 nM; in test [3] it was 17.3 ± 3.73 nM. For the same molecule, the Emax in test [2] was -1%; in test [3], 40.8 ± 1.93%.
On to `COc1ccc2c(c1)[C@]13CCN(CC4CC4)[C@H](C2)[C@]1(O)C[C@H](CCO)C(=O)C3` [Compound 46, (4bR,7S,8aS,9R)-11-(cyclopropylmethyl)-8a-hydroxy-7-(2-hydroxyethyl)-3-methoxy-8,8a,9,10-tetrahydro-5H-9,4b-(epiminoethano)phenanthren-6(7H)-one], for which the figures for the EC50 in test [5] and in test [6] were 409 ± 88.5 nM and 1020 ± 110 nM, respectively. The Emax worked out at 68.7 ± 4.1% in test [5] and 109 ± 4.84% in test [6]. Moreover, the Ki came out at 394 ± 85.2 nM in test [1] and 591 ± 80.3 nM in test [4].
As to `COc1ccc2c(c1)[C@]13CCN(CC4CC4)[C@H](C2)[C@]1(O)C[C@H](CCOCc1ccccc1)C(=O)C3` [Compound 48, (4bR,7S,8aS,9R)-7-(2-(benzyloxy)ethyl)-11-(cyclopropylmethyl)-8a-hydroxy-3-methoxy-8,8a,9,10-tetrahydro-5H-9,4b-(epiminoethano)phenanthren-6(7H)-one], the EC50 was found to be 38.6 ± 2.85 nM in test [5], 463 ± 32.6 nM in test [2], 225 ± 20.1 nM in test [6] and 362 ± 36.6 nM in test [3]. The Emax in test [5] stood at 98 ± 2.65%; in test [2], 139 ± 3.21%; in test [6], 119 ± 4.91%; in test [3], 70.3 ± 6.94%. In addition, the Ki in test [1] was found to be 65.3 ± 4.49 nM; in test [4], 223 ± 32.5 nM.
For `COc1ccc2c(c1)[C@]13CCN(CC4CC4)[C@H](C2)[C@@H]1C[C@@H](C(C)C)C(=O)C3` [Compound 72, (4bS,7S,8aR,9R)-11-(cyclopropylmethyl)-7-isopropyl-3-methoxy-8,8a,9,10-tetrahydro-5H-9,4b-(epiminoethano)phenanthren-6(7H)-one], the EC50 in test [5] amounted to 270 ± 48.2 nM; in test [2] it was 212 ± 48.8 nM; in test [6], 303 ± 40.4 nM; in test [3] it was 1050 ± 193 nM. In addition, the Emax in test [5] was 60 ± 6%; in test [2] it was 101 ± 5.55%; in test [6], 102 ± 2.52%; in test [3], 69.3 ± 6.77%. For the same molecule, the values for the inhibition constant (Ki) in test [1] and in test [4] were 82.9 ± 1.96 nM and 476 ± 118 nM, respectively.
Consider `CC(C)[C@@H]1C[C@H]2[C@H]3Cc4ccc(O)cc4[C@@]2(CCN3CC2CC2)CC1=O` [Compound 73, (4bS,7S,8aR,9R)-11-(cyclopropylmethyl)-3-hydroxy-7-isopropyl-8,8a,9,10-tetrahydro-5H-9,4b-(epiminoethano)phenanthren-6(7H)-one], for which the EC50 is 0.84 ± 0.13 nM in test [5], 2.85 ± 0.6 nM in test [2], 1.92 ± 0.28 nM in test [6] and 6.07 ± 1.92 nM in test [3]. For the same molecule, the Emax in test [5] was found to be 28.3 ± 4.06%; in test [2] it was 53.2 ± 5.71%; in test [6] it was 101 ± 3.38%; in test [3], 61 ± 8.62%. Moreover, the Ki was 0.32 ± 0.11 nM in test [1] and 1.98 ± 0.44 nM in test [4].
`CC(C)[C@H]1C[C@H]2[C@H]3Cc4ccc(O)cc4[C@@]2(CCN3CC2CC2)CC1=O` [Compound 74, (4bS,7R,8aR,9R)-11-(cyclopropylmethyl)-3-hydroxy-7-isopropyl-8,8a,9,10-tetrahydro-5H-9,4b-(epiminoethano)phenanthren-6(7H)-one]: the EC50 in test [5] was found to be 3.66 ± 0.82 nM; in test [2] it was 2.31 ± 0.6 nM; in test [6] it was 1.42 ± 0.15 nM; in test [3], 3.52 ± 1 nM. The Emax was 46 ± 11% in test [5], 90.3 ± 3.84% in test [2], 91.3 ± 3.76% in test [6] and 34 ± 5.86% in test [3]. Besides, the Ki was found to be 0.33 ± 0.041 nM in test [1] and 7.42 ± 2.25 nM in test [4].
